Values of other authors in patent US20080318986A1, “Ddc Compositions” (priority 2005, published 2008).

Test system: adenoviral strains
Settings: literature study; for inhibition of adenoviral strains: Kaneko et al. J. Jpn. Opthalmol. Soc. 107:196-201 (2003)

Compound | inhibition of adenoviral strains | EC50 values against adenoviral strains (rank among NMSO3, HPMPC, dDC) (Kaneko et al. 2003, comparison in words only)
Nc1ccn(C[C@@H](CO)OCP(=O)(O)O)c(=O)n1 [HPMPC] | inhibited adenoviral strains | 
CCCCCCCCCCCCCCCCCCCCCCOCC(C)(COCCCCCCCCCCCCCCCCCCCCCC)CO[C@]1(C(=O)O)C[C@H](OS(=O)(=O)O)[C@@H](NC(C)=O)[C@H]([C@H](OS(=O)(=O)O)[C@@H](COS(=O)(=O)O)OS(=O)(=O)O)O1 [NMSO3] | inhibited adenoviral strains | lowest EC50 values
Nc1ccn([C@H]2CC[C@@H](CO)O2)c(=O)n1 [dDC, 2′,3′-Dideoxycytidine] | inhibited adenoviral strains | 
